Tests used:
GABAA receptor α1β2γ2 = target: T1, GABAA receptor α1β2γ2 (Homo sapiens, UniProt P14867+P47870); experiment: Patch clamp electrophysiology, Qpatch in Ltk cells; type: cell-based; conditions: 10 μM test article, GABA EC20 2 μM, read-out: GABA (α1β2γ2) Qpatch in Ltk, % efficacy at 10 μM
T1 construct: expressed in transfected cells
Procedure: Patch Clamp Electrophysiology of Recombinant α1β2γ2 and α4β3δ GABAA Receptors
Cellular electrophysiology is used to measure the pharmacological properties of our GABAA receptor modulators in heterologous cell systems. Each compound is tested for its ability to affect GABA mediated currents at a submaximal agonist dose (GABA EC20=2 μM). LTK cells are stably transfected with the α1β2γ2 subunits of the GABA receptor and CHO cells are transiently transfected with the α4β3δ subunits via the Lipofecatamine method. Cells were passaged at a confluence of about 50-80% and then seeded onto 35 mm sterile culture dishes containing 2 ml culture complete medium without antibiotics or antimycotics. Confluent clusters of cells are electrically coupled (Pritchett et al., Science, 1988, 242, 1306-1308.). Because responses in distant cells are not adequately voltage clamped and because of uncertainties about the extent of coupling (Verdoorn et al., Neuron 1990, 4, 919-928.), cells were cultivated at a density that enables the recording of single cells (without visible connections to other cells).
Whole cell currents were measured with HEKA EPC-10 amplifiers using PatchMaster software or by using the high throughput QPatch platform (Sophion). Bath solution for all experiments contained (in mM): NaCl 137 mM, KCl 4 mM, CaCl2 1.8 mM, MgCl2 1 mM, HEPES 10 mM, D-Glucose 10 mM, pH (NaOH) 7.4. In some cases 0.005% cremophor was also added. Intracellular (pipette) solution contained: KCl 130 mM, MgCl2 1 mM, Mg-ATP 5 mM, HEPES 10 mM, EGTA 5 mM, pH 7.2. During experiments, cells and solutions were maintained at room temperature (19° C.-30° C.). For manual patch clamp recordings, cell culture dishes were placed on the dish holder of the microscope and continuously perfused (1 ml/min) with bath solution. After formation of a Gigaohm seal between the patch electrodes and the cell (pipette resistance range: 2.5 MΩ-6.0 MΩ; seal resistance range: >1 GΩ) the cell membrane across the pipette tip was ruptured to assure electrical access to the cell interior (whole-cell patch-configuration). For experiments using the QPatch system, cells were transferred as suspension to the QPatch system in the bath solution and automated whole cell recordings were performed.
Cells were voltage clamped at a holding potential of −80 mV. For the analysis of test articles, GABA receptors were stimulated by 2 μM GABA after sequential pre-incubation of increasing concentrations of the test article. Pre-incubation duration was 30 s and the duration of the GABA stimulus was 2 s. Test articles were dissolved in DMSO to form stock solutions (10 mM). Test articles were diluted to 0.01, 0.1, 1, and 10 μM in bath solution. All concentrations of test articles were tested on each cell. The relative percentage potentiation was defined as the peak amplitude in response to GABA EC20 in the presence of the test article divided by the peak amplitude in response to GABA EC20 alone, multiplied by 100.

[1] = target: [35S]-TBPS binding, rat brain cortical membranes (GABA receptor complex); experiment: Steroid inhibition of [35S]-TBPS binding; conditions: 3 nM [35S]-TBPS, 5 μM GABA
Procedure: Steroid Inhibition of TBPS Binding
[35S]-t-Butylbicyclophosphorothionate (TBPS) binding assays using rat brain cortical membranes in the presence of 5 μM GABA has been described (Gee et al, J. Pharmacol. Exp. Ther. 1987, 241, 346-353; Hawkinson et al, Mol. Pharmacol. 1994, 46, 977-985; Lewin, A. H et al., Mol. Pharmacol. 1989, 35, 189-194).
Briefly, cortices are rapidly removed following decapitation of carbon dioxide-anesthetized Sprague-Dawley rats (200-250 g). The cortices are homogenized in 10 volumes of ice-cold 0.32 M sucrose using a glass/teflon homogenizer and centrifuged at 1500×g for 10 min at 4° C. The resultant supernatants are centrifuged at 10,000×g for 20 min at 4° C. to obtain the P2 pellets. The P2 pellets are resuspended in 200 mM NaCl/50 mM Na-K phosphate pH 7.4 buffer and centrifuged at 10,000×g for 10 min at 4° C. This washing procedure is repeated twice and the pellets are resuspended in 10 volumes of buffer. Aliquots (100 μL) of the membrane suspensions are incubated with 3 nM [^35S]-TBPS and 5 μL aliquots of test drug dissolved in dimethyl sulfoxide (DMSO) (final 0.5%) in the presence of 5 μM GABA. The incubation is brought to a final volume of 1.0 mL with buffer. Nonspecific binding is determined in the presence of 2 μM unlabeled TBPS and ranged from 15 to 25%. Following a 90 min incubation at room temp, the assays are terminated by filtration through glass fiber filters (Schleicher and Schuell No. 32) using a cell harvester (Brandel) and rinsed three times with ice-cold buffer. Filter bound radioactivity is measured by liquid scintillation spectrometry. Non-linear curve fitting of the overall data for each drug averaged for each concentration is done using Prism (GraphPad). […] The concentration of test compound producing 50% inhibition (IC50) of specific binding and the maximal extent of inhibition (Imax) are determined for the individual experiments with the same model used for the overall data and then the means±SEM.s of the individual experiments are calculated.
Various compounds are or can be screened to determine their potential as modulators of [^35S]-TBPS binding in vitro. These assays are or can be performed in accordance with the above discussed procedures.

T1 sequence (P14867 28-456): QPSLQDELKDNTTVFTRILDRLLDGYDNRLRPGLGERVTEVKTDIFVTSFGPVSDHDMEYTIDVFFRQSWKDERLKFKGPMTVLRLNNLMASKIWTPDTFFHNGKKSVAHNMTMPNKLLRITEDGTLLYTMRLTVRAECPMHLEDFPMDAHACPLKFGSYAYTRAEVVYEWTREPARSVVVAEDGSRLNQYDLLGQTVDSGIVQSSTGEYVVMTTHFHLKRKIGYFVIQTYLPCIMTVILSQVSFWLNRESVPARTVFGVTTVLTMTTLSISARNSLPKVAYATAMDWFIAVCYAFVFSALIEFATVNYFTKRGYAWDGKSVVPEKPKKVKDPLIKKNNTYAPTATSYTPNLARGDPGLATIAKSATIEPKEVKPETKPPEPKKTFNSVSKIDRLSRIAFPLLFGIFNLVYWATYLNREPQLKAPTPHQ
T1 sequence (P47870 25-512 limits assumed): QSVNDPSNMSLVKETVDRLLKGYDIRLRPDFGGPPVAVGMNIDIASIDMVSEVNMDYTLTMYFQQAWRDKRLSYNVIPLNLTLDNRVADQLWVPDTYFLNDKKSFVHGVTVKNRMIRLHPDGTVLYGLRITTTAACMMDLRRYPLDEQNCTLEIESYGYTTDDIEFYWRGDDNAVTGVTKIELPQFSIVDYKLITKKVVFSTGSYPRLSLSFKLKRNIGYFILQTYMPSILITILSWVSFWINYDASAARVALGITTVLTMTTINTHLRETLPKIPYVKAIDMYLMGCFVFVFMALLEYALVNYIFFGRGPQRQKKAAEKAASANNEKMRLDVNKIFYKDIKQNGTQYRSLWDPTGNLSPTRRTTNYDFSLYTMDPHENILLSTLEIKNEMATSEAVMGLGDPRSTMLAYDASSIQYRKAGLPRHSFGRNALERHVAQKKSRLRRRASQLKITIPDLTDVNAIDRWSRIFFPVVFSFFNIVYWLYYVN
T1 sequence (P18507 40-475 partner): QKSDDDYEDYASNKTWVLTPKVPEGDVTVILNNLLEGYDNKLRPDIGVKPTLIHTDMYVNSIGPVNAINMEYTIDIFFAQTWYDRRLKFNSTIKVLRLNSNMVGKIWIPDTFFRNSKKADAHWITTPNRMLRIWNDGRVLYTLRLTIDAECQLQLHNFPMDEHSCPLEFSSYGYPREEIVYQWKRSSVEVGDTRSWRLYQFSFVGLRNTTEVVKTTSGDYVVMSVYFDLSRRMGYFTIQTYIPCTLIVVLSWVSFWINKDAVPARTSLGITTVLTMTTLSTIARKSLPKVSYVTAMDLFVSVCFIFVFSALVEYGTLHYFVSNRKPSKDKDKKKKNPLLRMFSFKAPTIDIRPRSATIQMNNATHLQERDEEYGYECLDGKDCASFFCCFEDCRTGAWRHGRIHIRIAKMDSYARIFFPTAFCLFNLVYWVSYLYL

Row | Compound | Emax at 10 µM (GABAA receptor α1β2γ2) [%] | IC50 [1] [nM]
1 | C[C@]12CC[C@H]3[C@@H](CC[C@@H]4C[C@@](O)(C(F)F)CC[C@@H]43)[C@@H]1CC[C@@H]2C(=O)Cn1cc(C#N)cn1 [SA-28] | > 500 | 
2 | CC[C@@]1(O)CC[C@H]2[C@H](CC[C@@H]3[C@@H]2CC[C@]2(C)[C@@H](C(=O)Cn4cc(C#N)cn4)CC[C@@H]32)C1 [SA-30] | 100 to 500 | 
3 | COC[C@@]1(O)CC[C@H]2[C@@H](CC[C@@H]3[C@@H]2CC[C@]2(C)[C@@H](C(=O)Cn4cc(S(C)(=O)=O)cn4)CC[C@@H]32)C1 [SB-7] |  | ≥ 500
4 | C[C@]12CC[C@H]3[C@@H](CC[C@@H]4C[C@@](O)(CF)CC[C@@H]43)[C@@H]1CC[C@@H]2C(=O)Cn1cccn1 [SA-31] | 100 to 500 | 100 to 500
5 | CCOC[C@@]1(O)CC[C@H]2[C@@H](CC[C@@H]3[C@@H]2CC[C@]2(C)[C@@H](C(=O)Cn4cccn4)CC[C@@H]32)C1 [SB-8] |  | ≥ 500
6 | CO[C@H]1C[C@H]2[C@@H](CC[C@@H]3[C@@H]2CC[C@]2(C)[C@@H](C(=O)Cn4cccn4)CC[C@@H]32)C[C@]1(C)O [SB-19] | > 500 | 100 to 500
7 | C[C@@]1(O)CC[C@H]2[C@@H](CC[C@@H]3[C@@H]2CC[C@]2(C)[C@@H](C(=O)Cn4cc(S(C)(=O)=O)cn4)CC[C@@H]32)C1 [SB-3] |  | ≥ 500
8 | CSc1cnn(CC(=O)[C@H]2CC[C@H]3[C@@H]4CC[C@@H]5C[C@](C)(O)CC[C@@H]5[C@H]4CC[C@]23C)c1 [SA-18] | > 500 | 
9 | CCOC(=O)c1cnn(CC(=O)[C@H]2CC[C@H]3[C@@H]4CC[C@@H]5C[C@](C)(O)CC[C@@H]5[C@H]4CC[C@]23C)c1 [SA-3] | > 500 | < 10
10 | C[C@]12CC[C@H]3[C@@H](CC[C@H]4C[C@@](O)(CF)CC[C@@H]43)[C@@H]1CC[C@@H]2C(=O)Cn1cc(C#N)cn1 [SB-22] | > 500 | 100 to 500
11 | CC[C@@]1(O)CC[C@H]2[C@@H](CC[C@@H]3[C@@H]2CC[C@]2(C)[C@@H](C(=O)Cn4cccn4)CC[C@@H]32)C1 [SB-20] |  | ≥ 500
12 | CCOC[C@@]1(O)CC[C@H]2[C@@H](CC[C@@H]3[C@@H]2CC[C@]2(C)[C@@H](C(=O)Cn4cc(C#N)cn4)CC[C@@H]32)C1 [SB-9] | 100 to 500 | 
13 | Cc1cnn(CC(=O)[C@H]2CC[C@H]3[C@@H]4C[C@@H](F)[C@H]5C[C@](C)(O)CC[C@@H]5[C@H]4CC[C@]23C)c1 [SB-12] | 100 to 500 | 
14 | Cc1cc(C)n(CC(=O)[C@H]2CC[C@H]3[C@@H]4CC[C@@H]5C[C@](C)(O)CC[C@@H]5[C@H]4CC[C@]23C)n1 [SA-12] | 100 to 500 | 10 to 50
15 | C[C@@]1(O)CC[C@H]2[C@H](CC[C@@H]3[C@@H]2CC[C@]2(C)[C@@H](C(=O)Cn4cc(C(F)(F)F)cn4)CC[C@@H]32)C1 [SA-14] | 100 to 500 | 
16 | CC[C@@]1(O)CC[C@H]2[C@H](CC[C@@H]3[C@@H]2CC[C@]2(C)[C@@H](C(=O)Cn4cccn4)CC[C@@H]32)C1 [SA-35] | 100 to 500 | 100 to 500

Row | Compound | Emax at 10 µM (GABAA receptor α1β2γ2) [%] | IC50 [1] [nM]
17 | C[C@@]1(O)CC[C@@H]2[C@H]3CC[C@]4(C)[C@@H](C(=O)Cn5ccc(C#N)n5)CC[C@H]4[C@@H]3C[C@@H](F)[C@H]2C1 [SB-13] | 100 to 500 | 
18 | C[C@@]1(O)CC[C@H]2[C@H](CC[C@@H]3[C@@H]2CC[C@]2(C)[C@@H](C(=O)Cn4cc(F)cn4)CC[C@@H]32)C1 [SA-21] | > 500 | 
19 | COC[C@@]1(O)CC[C@H]2[C@@H](CC[C@@H]3[C@@H]2CC[C@]2(C)[C@@H](C(=O)Cn4cccn4)CC[C@@H]32)C1 [SB-4] | > 500 | 100 to 500
20 | COC[C@@]1(O)CC[C@H]2[C@H](CC[C@@H]3[C@@H]2CC[C@]2(C)[C@@H](C(=O)Cn4cccn4)CC[C@@H]32)C1 [SA-23] | > 500 | 100 to 500
21 | C[S+]([O-])c1cnn(CC(=O)[C@H]2CC[C@H]3[C@@H]4CC[C@@H]5C[C@](C)(O)CC[C@@H]5[C@H]4CC[C@]23C)c1 (stereo partly drawn) [SA-20] | 100 to 500 | 
22 | CSc1cnn(CC(=O)[C@H]2CC[C@H]3[C@@H]4C[C@@H](F)[C@H]5C[C@](C)(O)CC[C@@H]5[C@H]4CC[C@]23C)c1 [SB-14] | 100 to 500 | 
23 | C[C@]12CC[C@H]3[C@@H](CC[C@@H]4C[C@@](O)(C(F)F)CC[C@@H]43)[C@@H]1CC[C@@H]2C(=O)Cn1cccn1 [SA-27] | 100 to 500 | 100 to 500
24 | C[C@]12CC[C@H]3[C@@H](CC[C@@H]4C[C@@](O)(CF)CC[C@@H]43)[C@@H]1CC[C@@H]2C(=O)Cn1cc(S(C)(=O)=O)cn1 [SA-33] |  | ≥ 500
25 | C[C@]12CC[C@H]3[C@@H](CC[C@@H]4C[C@@](O)(C(F)F)CC[C@@H]43)[C@@H]1CC[C@@H]2C(=O)Cn1cc(S(C)(=O)=O)cn1 [SA-29] |  | ≥ 500
26 | CCc1cnn(CC(=O)[C@H]2CC[C@H]3[C@@H]4CC[C@@H]5C[C@](C)(O)CC[C@@H]5[C@H]4CC[C@]23C)c1 [SA-16] | > 500 | 
27 | C[C@@]1(O)CC[C@@H]2[C@H]3CC[C@]4(C)[C@@H](C(=O)Cn5cccn5)CC[C@H]4[C@@H]3C[C@@H](F)[C@@H]2C1 [SA-25] |  | ≥ 500
28 | C[C@@H]1C[C@H]2[C@@H](CC[C@@H]3[C@@H]2CC[C@]2(C)[C@@H](C(=O)Cn4cccn4)CC[C@@H]32)C[C@]1(C)O [SB-18] | 100 to 500 | 100 to 500
29 | CC[C@@]1(O)CC[C@H]2[C@@H](CC[C@@H]3[C@@H]2CC[C@]2(C)[C@@H](C(=O)Cn4cc(C#N)cn4)CC[C@@H]32)C1 [SB-21] | 100 to 500 | 
30 | C[C@]12CC[C@H]3[C@@H](CC[C@H]4C[C@@](O)(CF)CC[C@@H]43)[C@@H]1CC[C@@H]2C(=O)Cn1cccn1 [SB-23] | 100 to 500 | 100 to 500
31 | Cc1cn(CC(=O)[C@H]2CC[C@H]3[C@@H]4CC[C@@H]5C[C@](C)(O)CC[C@@H]5[C@H]4CC[C@]23C)nc1C [SA-15] | 100 to 500 | 
